Values of other authors in US20100209495A1, “GRANULATES, PROCESS FOR PREPARING THEM AND PHARMACEUTICAL PRODUCTS CONTAINING THEM” (Mylan Laboratories, Inc., priority 2008, published 2010).

Settings: at 37° C.

**Q.** For `CC(O)(CS(=O)(=O)c1ccc(F)cc1)C(=O)Nc1ccc(C#N)c(C(F)(F)F)c1` (stereo not shown) [bicalutamide, N-[4-cyano-3-(trifluoromethyl)phenyl]-3-(4-fluorophenyl) sulfonyl-2-hydroxy-2-methyl-propanamide], which water solubility is on record?
**A.** 5 mg/1000 ml
